Source: patent US20240238232A1, “COMPOSITIONS AND METHODS FOR THE REDUCTION OR TREATMENT OF INSULIN RESISTANCE AND METABOLIC CONDITIONS” (AXCELLA HEALTH INC., priority 2018, published 2024)

System: Human CCL2 (MCP-1)
Test: MCP1/CCL2 secretion in primary human hepatocytes (FFA + TNFα, ELISA after 24 h)
Format: cell-based
Conditions: for MCP1 expression relative to Control, Mean: baseline subtracted; for MCP1/CCL2 secretion: primary human hepatocytes from two healthy donors, FFA + TNFα, 24 h
Procedure: Hepatocyte lipotoxicity appears to be a central driver of hepatic cellular injury via oxidative stress and endoplasmic reticulum (ER) stress. The ability of amino acids to influence steatosis (lipid accumulation) and inflammation in hepatocytes was assessed using human primary hepatocytes (Lonza, TRL).
Primary hepatocytes lot nos. from two healthy human donors were seeded on day 0 at density of 6e04 cells in 96 well optical microplates (Thermofisher) in hepatocyte plating media (William's E medium (Gibco) supplemented with 10% heat-inactivated FBS (Atlanta Bio), 2 mM Glutamax (Gibco), and 0.2% Primocin (InVivoGen) and incubated for 6 hours at 37° C., 5% CO2. After 6 hours, cells were washed twice and incubated overnight at 37° C., 5% CO2 with Hepatocytes defined medium (Corning) supplemented with 2 mM Glutamax (Gibco), and 1×Penicillin/Streptomycin. On day 1, cells were washed twice and incubated for 24 h in the hepatocyte culture media in the same conditions described above.
On day 2, cells were washed twice with DPBS 1 X (Gibco) and maintained in amino acid-free WEM (US Biologicals) containing a defined custom amino acid concentration based on the mean physiological concentrations in blood. The values are published in the Human Metabolome Database (Wishart D S, Tzur D, Knox C, et al., HMDB: the Human Metabolome Database. Nucleic Acids Res. 2007 January; 35 (Database issue): D521-6. 17202168; which is hereby incorporated by reference in its entirety). This custom media is supplemented with 11 mM Glucose, 0.272 mM Sodium Pyruvate, and a dose curve of defined amino acid compositions (i.e., vehicle, LIVRQ+N-acetylcysteine, LIVRQ, RQ+N-acetylcysteine, N-acetylcysteine alone, LIV, or individually with L-Leucine, L-Isoleucine, L-Valine, L-Arginine, L-Glutamine, and L-Cysteine) at various ranges of concentrations. Cells were maintained in this defined media for 24 hours at 37° C., 5% CO2.
Co-treatment with free fatty acids and different amino acids combination After pre-treatment, cells were exposed to free fatty acids (FFA) at 250 uM with a ratio of 2:1 (Oleate: Palmitate) supplemented with TNF-α (Thermofisher) at 1 ng/ml or vehicle. Cells were incubated with the FFAs mixture and the different amino acids combinations for 24 hours at 37° C., 5% CO2. After 24 hours incubation, media was removed for cytokine analysis and replaced by fresh media containing the same stimulus conditions and amino acid concentrations. Cells were incubated for an additional 48 hours for a total of 72 hours of FFA and TNFα stimulation.
Human CCL2 (MCP-1) was measured by ELISA (Human […] DuoSet ELISA, R&D Systems) at ⅕ or 1/10 dilution in 1 X Reagent Diluent (Reagent Ancillary Kit 2, R&D Systems). Data were normalized to the specific per well cell density determined by nuclei count stained by Hoechst 3342 (Life technologies) in the fluorescence microscopy described below.
MCP1 CCL2 Secretion Tables 56-59 show the baseline subtracted secretion of MCP1/CCL2 in primary human hepatocytes cells from two healthy donors (donor 1 for Tables 56 and 57, and donor 2 for Tables 58 and 59).

CC[C@H](C)[C@H](N)C(=O)O [Isoleucine, L-Isoleucine]
MCP1 expression relative to Control, Mean (Donor 1, Conc. 66 μM): −1.2E−15 | MCP1 expression relative to Control, Mean (Donor 1, Conc. 1328 μM): −0.3073 | MCP1 expression relative to Control, Mean (Donor 1, Conc. 3320 μM): −2.417 | MCP1 expression relative to Control, Mean (Donor 1, Conc. 6639 μM): −0.205 | MCP1 expression relative to Control, Mean (Donor 2, Conc. 66 μM): 0 | MCP1 expression relative to Control, Mean (Donor 2, Conc. 1328 μM): 26.62 | MCP1 expression relative to Control, Mean (Donor 2, Conc. 3320 μM): −5.645 | MCP1 expression relative to Control, Mean (Donor 2, Conc. 6639 μM): 18.62 | MCP1/CCL2 secretion: did not have an effect

N=C(N)NCCC[C@H](N)C(=O)O [arginine, L-Arginine]
MCP1 expression relative to Control, Mean (Donor 1, Conc. 109 μM): 2.37E−15 | MCP1 expression relative to Control, Mean (Donor 1, Conc. 1088 μM): 5.114 | MCP1 expression relative to Control, Mean (Donor 1, Conc. 2720 μM): 6.527 | MCP1 expression relative to Control, Mean (Donor 1, Conc. 5440 μM): 10.9386 | MCP1 expression relative to Control, Mean (Donor 2, Conc. 109 μM): −4.7E−15 | MCP1 expression relative to Control, Mean (Donor 2, Conc. 1088 μM): 24.95 | MCP1 expression relative to Control, Mean (Donor 2, Conc. 2720 μM): 24.06 | MCP1 expression relative to Control, Mean (Donor 2, Conc. 5440 μM): 8.494 | MCP1/CCL2 secretion: increased

CC(=O)N[C@@H](CS)C(=O)O [N-acetyl cysteine, N-acetylcysteine]
MCP1 expression relative to Control, Mean (Donor 1, Conc. 1000 μM): −0.7629 | MCP1 expression relative to Control, Mean (Donor 1, Conc. 2500 μM): −2.498 | MCP1 expression relative to Control, Mean (Donor 1, Conc. 5000 μM): −10.8919 | MCP1 expression relative to Control, Mean (Donor 1, Conc. 10000 μM): −17.6065 | MCP1 expression relative to Control, Mean (Donor 1, Conc. (X) 5): −0.7629 | MCP1 expression relative to Control, Mean (Donor 1, Conc. (X) 10): −2.498 | MCP1 expression relative to Control, Mean (Donor 1, Conc. (X) 20): −10.8919 | MCP1 expression relative to Control, Mean (Donor 1, Conc. (X) 40): −17.6065 | MCP1 expression relative to Control, Mean (Donor 2, Conc. 1000 μM): 1.602 | MCP1 expression relative to Control, Mean (Donor 2, Conc. 2500 μM): −4.0591 | MCP1 expression relative to Control, Mean (Donor 2, Conc. 5000 μM): −10.5725 | MCP1 expression relative to Control, Mean (Donor 2, Conc. 10000 μM): −28.4419 | MCP1 expression relative to Control, Mean (Donor 2, Conc. (X) 1000): 1.602 | MCP1 expression relative to Control, Mean (Donor 2, Conc. (X) 2500): −4.0591 | MCP1 expression relative to Control, Mean (Donor 2, Conc. (X) 5000): −10.5725 | MCP1 expression relative to Control, Mean (Donor 2, Conc. (X) 10000): −28.4419 | MCP1/CCL2 secretion: significantly decrease

CC(C)[C@H](N)C(=O)O [Valine, L-Valine]
MCP1 expression relative to Control, Mean (Donor 1, Conc. 234 μM): −2.4E−15 | MCP1 expression relative to Control, Mean (Donor 1, Conc. 4684 μM): 23.6867 | MCP1 expression relative to Control, Mean (Donor 1, Conc. 11710 μM): 77.73 | MCP1 expression relative to Control, Mean (Donor 1, Conc. 23420 μM): 14.17 | MCP1 expression relative to Control, Mean (Donor 2, Conc. 234 μM): −1.4E−14 | MCP1 expression relative to Control, Mean (Donor 2, Conc. 4684 μM): 10.79 | MCP1 expression relative to Control, Mean (Donor 2, Conc. 11710 μM): 38.25 | MCP1 expression relative to Control, Mean (Donor 2, Conc. 23420 μM): −30.7921 | MCP1/CCL2 secretion: did not have an effect

CC(C)C[C@H](N)C(=O)O [Leucine, L-Leucine]
MCP1 expression relative to Control, Mean (Donor 1, Conc. 153 μM): 5.92E−16 | MCP1 expression relative to Control, Mean (Donor 1, Conc. 3054 μM): 3.34 | MCP1 expression relative to Control, Mean (Donor 1, Conc. 7635 μM): 1.896 | MCP1 expression relative to Control, Mean (Donor 1, Conc. 15270 μM): −1.368 | MCP1 expression relative to Control, Mean (Donor 2, Conc. 153 μM): −4.7E−15 | MCP1 expression relative to Control, Mean (Donor 2, Conc. 3054 μM): 16.11 | MCP1 expression relative to Control, Mean (Donor 2, Conc. 7635 μM): −2.988 | MCP1 expression relative to Control, Mean (Donor 2, Conc. 15270 μM): −26.6436 | MCP1/CCL2 secretion: did not have an effect

NC(=O)CC[C@H](N)C(=O)O [glutamine, L-Glutamine]
MCP1 expression relative to Control, Mean (Donor 1, Conc. 749 μM): 0 | MCP1 expression relative to Control, Mean (Donor 1, Conc. 3747 μM): −0.8981 | MCP1 expression relative to Control, Mean (Donor 1, Conc. 11242 μM): −9.001 | MCP1 expression relative to Control, Mean (Donor 1, Conc. 22484 μM): −21.8392 | MCP1 expression relative to Control, Mean (Donor 2, Conc. 749 μM): 2.84E−14 | MCP1 expression relative to Control, Mean (Donor 2, Conc. 3747 μM): −45.0574 | MCP1 expression relative to Control, Mean (Donor 2, Conc. 11242 μM): −90.6558 | MCP1 expression relative to Control, Mean (Donor 2, Conc. 22484 μM): −138.873 | MCP1/CCL2 secretion: significantly decrease
